Common to all, as to type: in vivo
One test deals with Soja-bohnen. Description: Pre-emergence test, greenhouse. The following applies: 0,5 kg/ha, rated after three weeks vs untreated control, 0 % = no effect, 100 % = total destruction. The source says: (§1) Pre-emergence-Test - Gewächshaus
(§2) Lösungsmittel: 5 Gewichtsteile Aceton
(§3) Emulgator: 1 Gewichtsteil Alkylarylpolyglykolether
(§4) Zur Herstellung einer zweckmäßigen Wirkstoffzubereitung vermischt man 1 Gewichtsteil Wirkstoff mit der angegebenen Menge Lösungsmittel, gibt die angegebene Menge Emulgator zu und verdünnt das Konzentrat mit Wasser auf die gewünschte Konzentration.
(§5) Samen der Testpflanzen werden in normalen Boden ausgesät und nach 24 Stunden mit der Wirkstoffzubereitung begossen. Dabei hält man die Wassermenge pro Flächeneinheit zweckmäßigerweise konstant. Die Wirkstoffkonzentration in der Zubereitung spielt keine Rolle, entscheidend ist nur die Aufwandmenge des Wirkstoffs pro Flächeneinheit. Nach drei Wochen wird der Schädigungsgrad der Pflanzen bonitiert in % Schädigung im Vergleich zur Entwicklung der unbehandelten Kontrolle. Es bedeuten: • O % = keine Wirkung (wie unbehandelte Kontrolle) 100 % = totale Vernichtung

The next test has as its system Sorghum halepense. Description: Pre-emergence test, greenhouse. The following applies: 0,5 kg/ha, rated after three weeks vs untreated control, 0 % = no effect, 100 % = total destruction.
Excerpt: as §1, §2, §3, §4, §5

The subject of a further test is Baum-wolle. Description: Pre-emergence test, greenhouse. The following applies: 0,5 kg/ha, rated after three weeks vs untreated control, 0 % = no effect, 100 % = total destruction.
Excerpt: as §1, §2, §3, §4, §5

For a further test, the system named is Testpflanzen. Description: Pre-emergence test, greenhouse (overall statement). The following applies: result in words.
Excerpt: as §1, §2, §3, §4, §5

Take `CC(C)CC(=O)C(Cl)(Cl)P(=O)(OC(C)C)OC(C)C` [Beispiel 1, O,O-Di-i-propyl-(1,1-dichlor-4-methyl-2-oxo-pentan)-phosphonsäureester]: the “Schädigungsgrad der Pflanzen (% Schädigung), Soja-bohnen” value in the test with Soja-bohnen worked out at 0%. Besides, the “Schädigungsgrad der Pflanzen (% Schädigung), Sorghum halepense” value in the test with Sorghum halepense is 100%. In addition, the “Schädigungsgrad der Pflanzen (% Schädigung), Baum-wolle” value in the test on Baum-wolle came out at 0%. Further, the Wirksamkeit result in the test with Testpflanzen is recorded as “ausgezeichnete Wirksamkeit”.
